Structures are written as SMILES. Values after ≈ are worked out from the molar mass of the structure shown. Read-outs that look alike come from different tables or passages of the source.

Test [1] relates to P. acnes MTCC 1951. It counts as cell-based, Propionibacterium acnes. To be noted: for MPC/MIC: ratio against P. acnes. On the procedure: 3 to 4 Petri plates containing 48 h P. acnes culture was suspended in sterile Phosphate buffer saline, PBS (pH 7.2) and turbidity was adjusted to optical density of 1 at 600 nm (10^9 cells/ml). 50 ml of this culture suspension was centrifuged at 4000 rpm for 40 min. The supernatant was discarded and pellet resuspended in 250 μl of sterile PBS. 50 μl of these cell suspensions (10^10 cells) was spread over the plates containing various concentrations of antibiotics (around MIC range). Plates were incubated at 37° C. for 48 h and the lowest concentration of the drug that allowed no growth was taken as its MPC.

Test [2] relates to S. aureus MTCC 6908. The experiment in a line: MIC by micro broth dilution, laboratory S. aureus strain. To be noted: Staphylococcus aureus, MTCC6908; Table 6; read-out: MIC Susceptible S. aureus (6908) strain. It counts as cell-based, Staphylococcus aureus. On the procedure: The plates were incubated at 37° C. for 48 h under anaerobic condition for P. acnes and 37° C. for 24 h for S. aureus The plates were read under Bio-Rad plate reader at 595 nm for optical density to generate the dose-response curves. The MIC of the test compound was recorded by addition of Alamar blue dye.
S. aureus MTCC 6908 were grown in Tryptone Soya Agar (TSA) at 37° C. for 24 hours. […] Plates were incubated at 37° C. for 24 hours. […] (2) Zone of Inhibition (ZOI): S. aureus MTCC 6908 were grown in Tryptone Soya Agar (TSA) at 37° C. for 24 hours. BHA plates are spreaded with 100 μl of 0.5 McFarland standard equal bacterial suspension. Test samples (drugs/formulations) were dissolved in water/solvent based on the solubility. Sterile disc (6 mm) were loaded with 10 μl of test samples (of various concentration of drug), and were placed above the spreaded plates. Plates were incubated at 37 C for 24 h, followed by ZOI measurement. (3) Time Kill Assay: 0.5 McFarland standard equal S. aureus culture was prepared in sterile water. Besifloxacin gels were diluted in Tryptone Soya broth (TSB) to get final concentration of 25 μg/ml. Then 900 μl of S. aureus 0.5 McFarland standard equal culture and 100 μl of diluted Besifloxacin gel was mixed to obtain final Besifloxacin concentration, 2.5 μl g/ml. Total reaction mixture (1 ml) was incubated at 37° C. in a tube rotator. After 2 and 6 h exposure, bacterial suspension was placed on Tryptone soya agar plate and incubated at 37° C. for 24 h.
Inoculated plates were incubated at 37° C. for 24 hours.
Background: In broth dilution the organism is exposed to a series of concentrations in liquid medium.

Turning to `Cc1ncc([N+](=O)[O-])n1CC(O)CN1CCN(c2cc3c(cc2F)c(=O)c(C(=O)O)c2n3C(C)S2)CC1` (stereo not shown) [Compound 91, 6-Fluoro-7-{4-[2-hydroxy-3-(2-methyl-5-nitro-imidazol-1-yl)-propyl]-piperazin-1-yl}-1-methyl-4-oxo-4H-2-thia-8b-aza-cyclobuta[a]naphthalene-3-carboxylic acid], in test [1] (P. acnes, 10^10 cells inoculum), the MPC was 0.3 to 0.6 µg/mL. The MPC/MIC in test [1] is given as 1.5-3; in test [1] (listed as compound 91), 1.5. The MIC in test [2] was found to be 1.5 µg/mL (≈ 2.82 µM).

The MIC is the lowest concentration that inhibits growth of the organism.

Source of the values: US10071103B2, “Treatments for resistant acne” (VYOME BIOSCIENCES PVT. LTD., priority 2014, dated 2018).
